According to patent publication US10370433B2, “Compositions and methods for diagnosis and treatment of cancer” (BIONTECH AG, priority 2015, dated 2019):
Positions of bridges follow the written chain, without caps; N, C: chain ends. Residues, ends and D or L forms follow the SMILES beside them.

Target: T1, recombinant human Seprase (rhuSeprase) (Homo sapiens, UniProt Q12884)
T1 construct: named pCEP4-IgKappa-huSeprase-coCHO_26-760aa-H6 and used for the generation of recombinant soluble human Seprase (rhuSeprase); mouse Ig kappa-chain V-J2-C secretion signal (N, cleaved yes); made in house; host or cells: FreeStyle CHO-S cells (transient transfection; purified from supernatant by Ni-chelate and SEC)
T1 sequence (Q12884 26-760): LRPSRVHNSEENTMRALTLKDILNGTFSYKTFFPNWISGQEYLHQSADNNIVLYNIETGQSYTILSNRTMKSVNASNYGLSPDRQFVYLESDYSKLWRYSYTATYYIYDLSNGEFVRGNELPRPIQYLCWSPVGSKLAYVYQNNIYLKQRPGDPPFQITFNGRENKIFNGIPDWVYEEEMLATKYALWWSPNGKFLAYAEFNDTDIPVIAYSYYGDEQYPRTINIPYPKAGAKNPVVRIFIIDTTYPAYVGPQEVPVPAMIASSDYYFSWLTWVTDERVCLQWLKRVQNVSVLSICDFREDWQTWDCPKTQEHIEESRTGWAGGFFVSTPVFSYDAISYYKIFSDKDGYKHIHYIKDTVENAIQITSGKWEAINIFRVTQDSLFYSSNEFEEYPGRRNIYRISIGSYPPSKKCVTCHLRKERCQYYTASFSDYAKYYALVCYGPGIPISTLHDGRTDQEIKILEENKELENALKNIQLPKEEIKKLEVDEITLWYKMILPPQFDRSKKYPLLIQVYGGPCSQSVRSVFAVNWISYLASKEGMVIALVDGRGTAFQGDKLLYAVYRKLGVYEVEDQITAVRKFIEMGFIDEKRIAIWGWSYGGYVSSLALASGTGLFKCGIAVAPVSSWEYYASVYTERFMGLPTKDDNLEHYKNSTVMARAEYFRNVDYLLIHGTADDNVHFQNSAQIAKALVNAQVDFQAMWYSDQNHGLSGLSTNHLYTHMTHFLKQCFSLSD
Experiment: Surface plasmon resonance (Biacore T100) on immobilized rhuSeprase
Type: binding
Details: for kon: read-out: ka (1/Ms)

SMILES | kon | kd | offrate, times slower compared to MC-FA-012
CC[C@H](C)[C@@H]1NC(=O)[C@@H]2CSSC[C@H](NC(=O)[C@H](C)NC(=O)CN)C(=O)N3CCC[C@H]3C(=O)N[C@@H](Cc3ccc(O)cc3)C(=O)N[C@@H](CO)C(=O)N[C@@H](CC(N)=O)C(=O)N[C@@H](Cc3c[nH]c4ccccc34)C(=O)N[C@@H]([C@@H](C)O)C(=O)N3CCC[C@H]3C(=O)NCC(=O)N[C@@H](CCCNC(=N)N)C(=O)NCC(=O)N3CCC[C@H]3C(=O)N[C@@H](CC(=O)O)C(=O)N[C@H]3CSSC[C@H](NC1=O)C(=O)N[C@@H](CCCNC(=N)N)C(=O)NCC(=O)N[C@@H](CC(N)=O)C(=O)NCC(=O)N[C@@H](Cc1ccc(O)cc1)C(=O)N[C@H](C(=O)NCC(=O)O)CSSC[C@H](NC(=O)[C@H](CC(=O)O)NC(=O)[C@H](CO)NC(=O)[C@H](CC(=O)O)NC(=O)[C@H](CCCNC(=N)N)NC(=O)[C@H](CCCNC(=N)N)NC3=O)C(=O)N1CCC[C@H]1C(=O)NCC(=O)N[C@@H](CCCNC(=N)N)C(=O)N2 [MC-FA-012] (H-GACPYSNWTPGRGPDCRRDSDCPGRCICRGNGYCG-OH; disulfide 3-26, 16-28, 22-34; N-terminus and C-terminus assumed) | 408000 M⁻¹ s⁻¹ |  | 
CC[C@H](C)[C@@H]1NC(=O)[C@@H]2CSSC[C@H](NC(=O)[C@H](C)NC(=O)CNC(=O)[C@H](CO)NC(=O)CN)C(=O)N3CCC[C@H]3C(=O)N[C@@H](Cc3ccc(O)cc3)C(=O)N[C@@H](CO)C(=O)N[C@@H](CC(N)=O)C(=O)N[C@@H](Cc3c[nH]c4ccccc34)C(=O)N[C@@H]([C@@H](C)O)C(=O)N3CCC[C@H]3C(=O)NCC(=O)N[C@@H](CCCNC(=N)N)C(=O)NCC(=O)N3CCC[C@H]3C(=O)N[C@@H](CC(=O)O)C(=O)N[C@H]3CSSC[C@H](NC1=O)C(=O)N[C@@H](CC(C)C)C(=O)N[C@@H](CCC(=O)O)C(=O)N[C@@H](CC(N)=O)C(=O)NCC(=O)N[C@@H](Cc1ccccc1)C(=O)N[C@H](C(=O)NCC(=O)O)CSSC[C@H](NC(=O)[C@H](CC(=O)O)NC(=O)[C@H](CO)NC(=O)[C@H](CC(=O)O)NC(=O)[C@H](CO)NC(=O)[C@H](CO)NC3=O)C(=O)N1CCC[C@H]1C(=O)NCC(=O)N[C@@H](C)C(=O)N2 [MO-FA-012] (H-GSGACPYSNWTPGRGPDCSSDSDCPGACICLENGFCG-OH; disulfide 5-28, 18-30, 24-36; N-terminus and C-terminus assumed) | 382000 M⁻¹ s⁻¹ | 0.5128 s⁻¹ | 
CC[C@H](C)[C@@H]1NC(=O)[C@@H]2CSSC[C@H](NC(=O)[C@H](C)NC(=O)CNC(=O)[C@H](CO)NC(=O)CNC(=O)CON=CC(=O)NCCCC[C@H](NC(=O)[C@H](CO)NC(=O)CNC(=O)[C@H](CO)NC(=O)CNC(=O)[C@H](CCCCNC(=O)C=NOCC(=O)NCC(=O)N[C@@H](CO)C(=O)NCC(=O)N[C@@H](C)C(=O)N[C@H]3CSSC[C@@H]4NC(=O)[C@H](CCCNC(=N)N)NC(=O)CNC(=O)[C@@H]5CCCN5C(=O)[C@@H]5CSSC[C@@H](C(=O)NCC(=O)O)NC(=O)[C@H](Cc6ccc(O)cc6)NC(=O)CNC(=O)[C@H](CC(N)=O)NC(=O)CNC(=O)[C@H](CCCNC(=N)N)NC(=O)[C@H](CSSC[C@H](NC(=O)[C@H](CC(=O)O)NC(=O)[C@@H]6CCCN6C(=O)CNC(=O)[C@H](CCCNC(=N)N)NC(=O)CNC(=O)[C@@H]6CCCN6C(=O)[C@H]([C@@H](C)O)NC(=O)[C@H](Cc6c[nH]c7ccccc67)NC(=O)[C@H](CC(N)=O)NC(=O)[C@H](CO)NC(=O)[C@H](Cc6ccc(O)cc6)NC(=O)[C@@H]6CCCN6C3=O)C(=O)N[C@@H](CCCNC(=N)N)C(=O)N[C@@H](CCCNC(=N)N)C(=O)N[C@@H](CC(=O)O)C(=O)N[C@@H](CO)C(=O)N[C@@H](CC(=O)O)C(=O)N5)NC(=O)[C@H]([C@@H](C)CC)NC4=O)NC(=O)[C@H](CO)NC(=O)CNC(=O)[C@H](CO)NC(=O)CNC(=O)[C@H](CCCCNC(=O)C=NOCC(=O)NCC(=O)N[C@@H](CO)C(=O)NCC(=O)N[C@@H](C)C(=O)N[C@H]3CSSC[C@@H]4NC(=O)[C@H](CCCNC(=N)N)NC(=O)CNC(=O)[C@@H]5CCCN5C(=O)[C@@H]5CSSC[C@@H](C(=O)NCC(=O)O)NC(=O)[C@H](Cc6ccc(O)cc6)NC(=O)CNC(=O)[C@H](CC(N)=O)NC(=O)CNC(=O)[C@H](CCCNC(=N)N)NC(=O)[C@H](CSSC[C@H](NC(=O)[C@H](CC(=O)O)NC(=O)[C@@H]6CCCN6C(=O)CNC(=O)[C@H](CCCNC(=N)N)NC(=O)CNC(=O)[C@@H]6CCCN6C(=O)[C@H]([C@@H](C)O)NC(=O)[C@H](Cc6c[nH]c7ccccc67)NC(=O)[C@H](CC(N)=O)NC(=O)[C@H](CO)NC(=O)[C@H](Cc6ccc(O)cc6)NC(=O)[C@@H]6CCCN6C3=O)C(=O)N[C@@H](CCCNC(=N)N)C(=O)N[C@@H](CCCNC(=N)N)C(=O)N[C@@H](CC(=O)O)C(=O)N[C@@H](CO)C(=O)N[C@@H](CC(=O)O)C(=O)N5)NC(=O)[C@H]([C@@H](C)CC)NC4=O)NC(=O)[C@H](CO)NC(=O)CNC(=O)[C@H](CO)NC(=O)CNC(=O)CN3CCN(CC(=O)O)CCN(CC(=O)O)CCN(CC(=O)O)CC3)C(=O)O)C(=O)N3CCC[C@H]3C(=O)N[C@@H](Cc3ccc(O)cc3)C(=O)N[C@@H](CO)C(=O)N[C@@H](CC(N)=O)C(=O)N[C@@H](Cc3c[nH]c4ccccc34)C(=O)N[C@@H]([C@@H](C)O)C(=O)N3CCC[C@H]3C(=O)NCC(=O)N[C@@H](CCCNC(=N)N)C(=O)NCC(=O)N3CCC[C@H]3C(=O)N[C@@H](CC(=O)O)C(=O)N[C@H]3CSSC[C@H](NC1=O)C(=O)N[C@@H](CCCNC(=N)N)C(=O)NCC(=O)N[C@@H](CC(N)=O)C(=O)NCC(=O)N[C@@H](Cc1ccc(O)cc1)C(=O)N[C@H](C(=O)NCC(=O)O)CSSC[C@H](NC(=O)[C@H](CC(=O)O)NC(=O)[C@H](CO)NC(=O)[C@H](CC(=O)O)NC(=O)[C@H](CCCNC(=N)N)NC(=O)[C@H](CCCNC(=N)N)NC3=O)C(=O)N1CCC[C@H]1C(=O)NCC(=O)N[C@@H](CCCNC(=N)N)C(=O)N2 (single isomer, unassigned) [DOTA-(MC-FA-012)3] | 2.11e+07 M⁻¹ s⁻¹ |  | around 530 times
CC[C@H](C)[C@@H]1NC(=O)[C@@H]2CSSC[C@H](NC(=O)[C@H](C)NC(=O)CNC(=O)[C@H](CO)NC(=O)CN)C(=O)N3CCC[C@H]3C(=O)N[C@@H](Cc3ccc(O)cc3)C(=O)N[C@@H]([C@@H](C)O)C(=O)N[C@@H](CC(N)=O)C(=O)N[C@@H](Cc3c[nH]c4ccccc34)C(=O)N[C@@H](CCCNC(=N)N)C(=O)N3CCC[C@H]3C(=O)NCC(=O)N[C@@H](CCCNC(=N)N)C(=O)NCC(=O)N3CCC[C@H]3C(=O)N[C@@H](C)C(=O)N[C@H]3CSSC[C@H](NC1=O)C(=O)N[C@@H](CCCNC(=N)N)C(=O)NCC(=O)N[C@@H](CC(N)=O)C(=O)NCC(=O)N[C@@H](Cc1ccc(O)cc1)C(=O)N[C@H](C(=O)NCC(=O)O)CSSC[C@H](NC(=O)[C@H](CC(=O)O)NC(=O)[C@H](CO)NC(=O)[C@H](CC(=O)O)NC(=O)[C@H](CCCNC(=N)N)NC(=O)[C@H](CCCNC(=N)N)NC3=O)C(=O)N1CCC[C@H]1C(=O)NCC(=O)N[C@@H](CCCNC(=N)N)C(=O)N2 [FA8-C09] (H-GSGACPYTNWRPGRGPACRRDSDCPGRCICRGNGYCG-OH; disulfide 5-28, 18-30, 24-36; N-terminus and C-terminus assumed) | 9.92e+06 M⁻¹ s⁻¹ | 2.935 s⁻¹ | 
